Test results published in ChEMBL document CHEMBL5212743, “Selectivity Literature for EUbOPEN Chemogenomics Library wave 3” (2023).
Positions count from the first letter of the chain named. Blank lines part the entries; values can stand above or below the molecule they belong to.

Columns and labels:
[1] = target: Receptor-type tyrosine-protein kinase FLT3 (Homo sapiens, UniProt P36888); test: Selectivity interaction (NanoBRET assay (HEK293T cells)) EUB0000305b FLT3
[2] = target: Cyclin-dependent kinase 2 (Homo sapiens, UniProt P24941); test: Selectivity interaction (Kinase panel (University of Dundee)) EUB0000169b CDK2; conditions: at 10 µM
[3] = target: Ribosomal protein S6 kinase alpha-1 (Homo sapiens) (UniProt Q15418); conditions: at 10 µM
Sequence of Ribosomal protein S6 kinase alpha-1 (Homo sapiens) (Q15418 whole entry, looked up): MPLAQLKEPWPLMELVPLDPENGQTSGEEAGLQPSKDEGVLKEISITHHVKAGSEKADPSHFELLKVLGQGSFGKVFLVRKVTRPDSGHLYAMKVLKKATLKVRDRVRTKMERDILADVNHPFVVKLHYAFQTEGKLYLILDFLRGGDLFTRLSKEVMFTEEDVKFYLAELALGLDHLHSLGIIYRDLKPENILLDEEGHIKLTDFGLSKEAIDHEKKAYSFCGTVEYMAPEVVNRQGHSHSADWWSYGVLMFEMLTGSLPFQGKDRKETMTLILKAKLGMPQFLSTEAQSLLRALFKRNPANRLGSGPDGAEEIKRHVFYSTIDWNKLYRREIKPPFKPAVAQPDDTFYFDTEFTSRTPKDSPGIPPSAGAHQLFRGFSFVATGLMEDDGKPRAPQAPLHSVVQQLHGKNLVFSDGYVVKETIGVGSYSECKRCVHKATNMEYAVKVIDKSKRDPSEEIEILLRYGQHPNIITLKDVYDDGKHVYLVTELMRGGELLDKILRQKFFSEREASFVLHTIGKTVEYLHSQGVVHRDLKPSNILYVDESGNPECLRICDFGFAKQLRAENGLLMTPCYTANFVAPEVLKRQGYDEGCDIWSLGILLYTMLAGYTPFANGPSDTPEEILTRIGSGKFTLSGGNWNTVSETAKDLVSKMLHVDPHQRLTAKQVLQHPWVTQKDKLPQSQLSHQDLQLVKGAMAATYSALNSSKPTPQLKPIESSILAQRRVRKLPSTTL

[4] = target: Hepatocyte growth factor receptor (Homo sapiens) (UniProt P08581); conditions: at 1 µM
Sequence of Hepatocyte growth factor receptor (Homo sapiens) (P08581 whole entry): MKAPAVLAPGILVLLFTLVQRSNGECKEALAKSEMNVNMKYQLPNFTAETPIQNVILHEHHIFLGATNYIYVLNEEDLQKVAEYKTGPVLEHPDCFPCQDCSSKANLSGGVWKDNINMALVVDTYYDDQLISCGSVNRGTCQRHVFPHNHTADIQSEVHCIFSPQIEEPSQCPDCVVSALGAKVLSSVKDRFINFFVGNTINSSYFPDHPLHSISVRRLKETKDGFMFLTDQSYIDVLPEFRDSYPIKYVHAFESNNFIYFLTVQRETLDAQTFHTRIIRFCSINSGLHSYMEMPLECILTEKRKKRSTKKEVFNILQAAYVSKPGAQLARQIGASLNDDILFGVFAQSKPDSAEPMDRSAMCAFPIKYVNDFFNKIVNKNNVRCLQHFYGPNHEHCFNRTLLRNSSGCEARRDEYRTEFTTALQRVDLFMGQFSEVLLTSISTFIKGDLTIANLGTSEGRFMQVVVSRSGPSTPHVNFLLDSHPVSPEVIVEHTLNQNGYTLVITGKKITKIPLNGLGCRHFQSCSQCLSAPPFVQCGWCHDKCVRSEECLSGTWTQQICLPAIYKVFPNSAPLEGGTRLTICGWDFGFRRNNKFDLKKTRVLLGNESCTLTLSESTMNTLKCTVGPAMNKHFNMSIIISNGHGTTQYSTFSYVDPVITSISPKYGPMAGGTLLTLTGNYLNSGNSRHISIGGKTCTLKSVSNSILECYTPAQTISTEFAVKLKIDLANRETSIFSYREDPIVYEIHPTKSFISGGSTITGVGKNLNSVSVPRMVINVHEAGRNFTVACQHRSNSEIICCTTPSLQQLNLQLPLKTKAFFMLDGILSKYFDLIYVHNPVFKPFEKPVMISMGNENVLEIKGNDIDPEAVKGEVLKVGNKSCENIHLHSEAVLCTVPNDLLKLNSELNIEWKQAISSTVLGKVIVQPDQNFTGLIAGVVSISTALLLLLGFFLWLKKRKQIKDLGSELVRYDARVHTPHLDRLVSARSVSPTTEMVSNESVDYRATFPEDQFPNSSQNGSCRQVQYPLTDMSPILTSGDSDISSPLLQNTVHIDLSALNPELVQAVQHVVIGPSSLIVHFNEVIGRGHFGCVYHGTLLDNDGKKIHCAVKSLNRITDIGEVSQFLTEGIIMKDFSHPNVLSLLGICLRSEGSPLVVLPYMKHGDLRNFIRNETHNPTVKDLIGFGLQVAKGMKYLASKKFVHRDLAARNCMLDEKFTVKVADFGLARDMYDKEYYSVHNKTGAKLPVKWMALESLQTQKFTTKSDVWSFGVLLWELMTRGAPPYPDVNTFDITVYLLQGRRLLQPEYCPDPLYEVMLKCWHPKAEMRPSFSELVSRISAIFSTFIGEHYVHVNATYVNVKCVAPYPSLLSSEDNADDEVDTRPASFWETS

[5] = system: Receptor-type tyrosine-protein kinase FLT3 (Homo sapiens), P36888 [D835H]; test: (§1) Selectivity interaction (KinomeScan (DiscoverX)) EUB0000138c FLT3; conditions: at 100 nM
[6] = system: T1, Receptor-type tyrosine-protein kinase FLT3 (Homo sapiens), P36888 [D835V]; test: as §1; conditions: at 100 nM
T1 sequence (whole entry): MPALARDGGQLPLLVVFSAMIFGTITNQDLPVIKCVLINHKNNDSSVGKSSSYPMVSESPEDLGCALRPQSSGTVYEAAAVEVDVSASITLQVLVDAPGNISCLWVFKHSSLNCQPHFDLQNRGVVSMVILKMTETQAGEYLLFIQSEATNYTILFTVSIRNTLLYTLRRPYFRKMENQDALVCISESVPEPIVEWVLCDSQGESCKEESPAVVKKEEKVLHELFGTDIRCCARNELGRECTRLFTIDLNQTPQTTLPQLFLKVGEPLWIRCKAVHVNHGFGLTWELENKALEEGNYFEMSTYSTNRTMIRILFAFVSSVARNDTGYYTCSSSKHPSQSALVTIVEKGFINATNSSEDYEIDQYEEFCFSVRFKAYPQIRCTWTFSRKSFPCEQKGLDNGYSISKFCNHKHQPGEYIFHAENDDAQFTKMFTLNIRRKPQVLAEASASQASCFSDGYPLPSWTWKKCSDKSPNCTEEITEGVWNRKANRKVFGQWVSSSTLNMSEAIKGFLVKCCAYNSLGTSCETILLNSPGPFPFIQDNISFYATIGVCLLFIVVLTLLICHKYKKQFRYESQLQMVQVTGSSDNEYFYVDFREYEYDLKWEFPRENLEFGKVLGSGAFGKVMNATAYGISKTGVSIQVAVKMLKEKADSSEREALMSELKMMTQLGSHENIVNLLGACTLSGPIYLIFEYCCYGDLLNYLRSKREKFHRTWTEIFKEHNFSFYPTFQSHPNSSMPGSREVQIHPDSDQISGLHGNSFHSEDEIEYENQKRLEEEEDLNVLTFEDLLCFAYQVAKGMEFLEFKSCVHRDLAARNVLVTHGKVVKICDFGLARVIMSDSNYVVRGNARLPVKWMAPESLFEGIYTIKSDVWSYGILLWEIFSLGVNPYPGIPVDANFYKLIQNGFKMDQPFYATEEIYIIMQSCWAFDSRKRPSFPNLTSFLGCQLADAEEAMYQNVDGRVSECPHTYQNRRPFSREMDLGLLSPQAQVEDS

[7] = system: T2, Receptor-type tyrosine-protein kinase FLT3 (Homo sapiens), P36888 [N841I]; test: as §1; conditions: at 100 nM
T2 sequence (whole entry): T1 sequence (whole entry) with V835D, N841I

[8] = system: Receptor-type tyrosine-protein kinase FLT3 (Homo sapiens), P36888 [UNDEFINED MUTATION]; test: as §1; conditions: at 100 nM

IC50 [1]: > 20 µM
SMILES: C[C@H](c1ccnc(Nc2nc3ccc(-c4cc(N(C)C)ncn4)cc3[nH]2)c1)N1CCN(C(=O)CC(F)(F)F)CC1 [BAY-985]

% of control [2]: 20% | % of control [3]: 13.8%
SMILES: CC[C@@H]1C(=O)N(C)c2cnc(Nc3ccc(C(=O)NC4CCN(C)CC4)cc3OC)nc2N1C1CCCC1

SMILES: CCOc1cn(-c2ccc(F)cc2C)nc1C(=O)Nc1ccc(Oc2ccnc3cc(OC)c(OC)cc23)c(F)c1
% of control [4]: < 10%

% of control [5]: 99.8% | % of control [6]: 0.2% | % of control [7]: 0% | % of control [8]: 9%
SMILES: CNC(=O)c1ccc(Nc2ncc(C(F)(F)F)c(NCc3nccnc3N(C)S(C)(=O)=O)n2)cc1 [DEFACTINIB]
